Data reported in US9474744B2, “Beta-lactam compounds for treating diabetes” (STEM CELL MEDICINE LTD., priority 2011, dated 2016).

Key:
CD4+ human T cells = assay: Human Autoimmune and Inflammatory Response Gene Array, anti-CD3-stimulated T cells with or without antibiotic; format: cell-based; details: 120 min anti-CD3; for % increase by Amp: ampicillin 50 μg/ml
Experimental: T cells were purified from the peripheral bloods of healthy human donors (Blood Bank, Sheba Medical center). The whole blood was incubated (20 min, 22° C.) with RosetteSep™ human T cell enrichment mixture (StemCell Technologies, Vancouver, Canada). The remaining unsedimented cells were then loaded onto lymphocyte separation medium (ICN Biomedicals, Irvine, Calif.), isolated by density centrifugation, and washed with PBS. […] In a second round of purification, CD3^+ T cells were labeled for selection with a magnetically coupled mAb against CD4 (Miltenyi Biotec, Auburn, Calif.).
Human CD4 T cells were isolated as described, and incubated in 24 well plates (Nunc), 4×10^6 cells/ml with plate bound anti-human CD3 (OKT3) at 2 μg/ml. The stimulation was performed in RPMI medium supplemented with 0.1% BSA. […] RNA was extracted from samples and used to prepare probes for gene array in accord with the manufacturer's instructions (SuperArray Bioscience, Frederick, Md.). Adequate labeling of the probes was tested before hybridization. Three healthy donors were tested in stimulation with cefuroxime. The membranes were analyzed online with the Image Data Acquisition and Expression Analysis (SuperArray Bioscience).
The Human Autoimmune and Inflammatory Response Gene Array (SuperArray Bioscience corporation, Frederick, Md., USA) was used for analysis of gene expression by the T cells. This array contains 367 genes including cytokines, chemokines and their receptors, transcription factors and signaling proteins. […] Analysis of the results was performed using the GEArray analysis program. […] To verify the results detected by the gene array study, a panel of six genes was designed and tested by real-time PCR: CCR4, ACVR2, JAK1, STAT4, TLR2 and NFKBIE. The cDNA that was used was prepared from the same RNA used for the gene array experiment.

[1] = tested on: encephalitogenic BP10 line; assay: Adoptive EAE: BP10 T-cell line stimulated in vitro with test substance, then injected into naive rats; format: in vivo, rat; details: BP10 line stimulated 3 days with MBP in presence of 50 μg/ml antibiotic; 10^7 cells per rat
Experimental: Antigen-specific T-cell lines were established from lymph node cells that had been stimulated with myelin basic protein (MBP; 10 μg/ml) for 3 days in stimulation medium as described below. Following stimulation, the T-cell blasts were isolated on LYMPHOPREP™ (Nycomed Pharma, Oslo, Norway) and seeded in propagation medium. Propagation medium was identical to stimulation medium without autologous serum, but supplemented with fetal calf serum 10% and T-cell growth factors from the supernatant of Con A stimulated spleen cells 10% (Mor et al. (1990) J Clin Invest, 85, 1594-1598). Animals were injected intra-peritoneally with 107 MBP-stimulated T cells, following 6-8 cycles of in vitro stimulations. It is known that MBP-reactive lines undergo a reduction in pathogenicity after 6 or more in vitro stimulations. In some experiments the BP10 line was stimulated with phorbol myristate acetate (PMA; 50 ng/ml) and ionomycin (500 ng/ml) for 3 days in stimulation medium, without antigen-presenting cells.
Active EAE was induced by subcutaneous injection of 25 μg guinea-pig MBP (GpMBP) in complete Freund's adjuvant (CFA). […] Adoptive EAE was transferred by intra-peritoneal injection of guinea-pig MBP-activated cells of the BP10 line as described in Mor et al. (1993) J Clin Invest, 92, 2199-2206. […] Clinical scoring was: +1, paralysis of tail; +1.5, paresis of posterior paws and ataxia; +2, paraplegia; +3, paralysis extending to thoracic spine; +4, a moribund state.
Treatment with cefuroxime in vivo could affect many different host agents involved in EAE or AA as well as influencing the rats' bacterial flora. To test whether the antibiotic might directly modify the behavior of effector T cells, an encephalitogenic T-cell line was stimulated in the presence or absence of cefuroxime in vitro. The weakly encephalitogenic BP10 line was used, and was stimulated for 3 days with MBP in the presence or absence of cefuroxime (50 μg/ml). The activated T cells were then washed to remove the antibiotic, the T cells were injected intra-peritoneally into naïve recipient rats (10^7 per rat), and EAE was scored. The BP10 line at later stimulations was used, when its pathogenic potential is reduced, allowing to detect both suppression and enhancement of disease. […] To rule out antigen presenting cells (APC) as the target of the beta-lactam antibiotic, the encephalitogenic BP10 line was stimulated without APC using PMA (50 ng/ml) and Ionomycin (500 ng/ml) in the presence or absence of cefuroxime.
Additional beta-lactam antibiotics were tested for their effect on the adoptive transfer of EAE.
A control group was injected with the untreated line.

## CC1(C)S[C@@H]2[C@H](NC(=O)[C@H](N)c3ccccc3)C(=O)N2[C@H]1C(=O)O [ampicillin]
CD4+ human T cells; 50 μg/ml
  number of the 57 cefuroxime-down-regulated genes that were up-regulated: 56 genes
CD4+ human T cells; gene ACTB
  % increase by Amp: +196%
CD4+ human T cells; gene ACVR1, A low expression
  % increase by Amp: +53%
CD4+ human T cells; gene ACVR2, A low expression
  % increase by Amp: +85%
CD4+ human T cells; gene CCL5
  % increase by Amp: +25%
CD4+ human T cells; gene CCL11
  % increase by Amp: +107%
CD4+ human T cells; gene CCR4
  % increase by Amp: +31%
CD4+ human T cells; gene CCR6
  % increase by Amp: +83%
CD4+ human T cells; gene CCR7
  % increase by Amp: +43%
CD4+ human T cells; gene CD28
  % increase by Amp: +175%
CD4+ human T cells; gene CD40LG
  % increase by Amp: +67%
CD4+ human T cells; gene CREBBP
  % increase by Amp: +49%
CD4+ human T cells; gene CXCL10
  % increase by Amp: +25%
CD4+ human T cells; gene EGR3
  % increase by Amp: −25%
CD4+ human T cells; gene GFI1
  % increase by Amp: +10%
CD4+ human T cells; gene HRAS, A low expression
  % increase by Amp: −12%
CD4+ human T cells; gene IL1B, A low expression
  % increase by Amp: +64%
CD4+ human T cells; gene IL2RB
  % increase by Amp: +93%
CD4+ human T cells; gene IL2RG, A low expression
  % increase by Amp: +78%
CD4+ human T cells; gene IL9R
  % increase by Amp: No change
CD4+ human T cells; gene IL16, A low expression
  % increase by Amp: +14%
CD4+ human T cells; gene IRAK1
  % increase by Amp: +171%
CD4+ human T cells; gene JAK1
  % increase by Amp: +161%
CD4+ human T cells; gene JUN
  % increase by Amp: +65%
CD4+ human T cells; gene LTA
  % increase by Amp: +48.5%
CD4+ human T cells; gene MAP2K4
  % increase by Amp: +150%
CD4+ human T cells; gene MAP3K1, A low expression
  % increase by Amp: +63%
CD4+ human T cells; gene MAP3K2
  % increase by Amp: +93%
CD4+ human T cells; gene MAP3K7
  % increase by Amp: +124%
CD4+ human T cells; gene MAPK9
  % increase by Amp: +46%
CD4+ human T cells; gene NFKB1
  % increase by Amp: +31%
CD4+ human T cells; gene NFKB2
  % increase by Amp: +195%
CD4+ human T cells; gene NFKBIE
  % increase by Amp: +132%
CD4+ human T cells; gene NFKBIL1
  % increase by Amp: +191%
CD4+ human T cells; gene PAK1
  % increase by Amp: +111%
CD4+ human T cells; gene PIN1
  % increase by Amp: +105%
CD4+ human T cells; gene RANBP5
  % increase by Amp: +108%
CD4+ human T cells; gene REL
  % increase by Amp: +132%
CD4+ human T cells; gene RFX5
  % increase by Amp: +137%
CD4+ human T cells; gene RFXAP
  % increase by Amp: +131%
CD4+ human T cells; gene SDF2
  % increase by Amp: +71%
CD4+ human T cells; gene SELL
  % increase by Amp: +124%
CD4+ human T cells; gene SMAD4
  % increase by Amp: +85%
CD4+ human T cells; gene SMAD7, A low expression
  % increase by Amp: +34%
CD4+ human T cells; gene SP3
  % increase by Amp: +47%
CD4+ human T cells; gene SRF
  % increase by Amp: +58%
CD4+ human T cells; gene STAT1
  % increase by Amp: +85%
CD4+ human T cells; gene STAT4
  % increase by Amp: +11%
CD4+ human T cells; gene STAT6
  % increase by Amp: no change
CD4+ human T cells; gene TGFBR3
  % increase by Amp: +139%
CD4+ human T cells; gene TGIF, A low expression
  % increase by Amp: +72%
CD4+ human T cells; gene TLR2, A low expression
  % increase by Amp: +419%
CD4+ human T cells; gene TNFRSF11, A low expression
  % increase by Amp: +81%
CD4+ human T cells; gene TNFα
  % increase by Amp: +39%
CD4+ human T cells; gene TRAF5, A low expression
  % increase by Amp: +47%
CD4+ human T cells; gene TRAF6, A low expression
  % increase by Amp: +39%
CD4+ human T cells; gene YY1
  % increase by Amp: +152%
[1]
  severity of adoptive EAE in recipient rats: did not increase the severity of EAE
